Columns and labels:
[1] = test system: HCV genotype 1b (Con1) replicon in HUH-7 cells; experiment: HCV replicon luciferase reporter assay, genotype 1b; format: cell-based; conditions: Hepatitis C virus, Huh-7, 72 h, HCV genotype 1b replicon luciferase, 3 days incubation, read-out: LE_1b (EC50, range)
How it was run: (§1)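 Replicon inhibition for both genotypes was measured as Renilla luciferase signal (EnduRen, 7.5 μM final, 2 h) after 3-day, 37° C exposure of replicon-bearing HUH-7 cells in 4% FCS DMEM, 0.5% DMSO. The 1b construct carries S1179I; the 1a H77 construct carries P1496L and S2204I. Twenty-point, 3-fold dilutions were fitted four-parametrically for EC50, and CC50 was taken from multiplexed Cell Titer-Blue.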

[2] = test system: HCV genotype 1a (H77 strain) replicon in HUH-7 cells; experiment: HCV replicon luciferase reporter assay, genotype 1a; format: cell-based; conditions: Hepatitis C virus, Huh-7, 72 h, HCV genotype 1a replicon luciferase, 3 days incubation, read-out: LE_1a (EC50, range)
How it was run: as §1

Row | Compound | EC50 [1] | EC50 [2]
1 | COc1ccc2c(O[C@@H]3C[C@H]4C(=O)N[C@]5(C(=O)NS(=O)(=O)C6CC6)C[C@H]5/C=C\CC[C@H](C)C[C@@H](C)[C@H](NC(=O)OC(C)(C)C(F)(F)F)C(=O)N4C3)nc(-c3ccccc3)cc2c1 [Compound 5191, 1,1,1-trifluoro-2-methylpropan-2-yl((2R,6S,7R,9S,13aS,14aR,16aS,Z)-14a-((cyclopropylsulfonyl)carbamoyl)-2-((6-methoxy-3-phenylisoquinolin-1-yl)oxy)-7,9-dimethyl-5,16-dioxo-1,2,3,5,6,7,8,9,10,11,13a,14,14a,15,16,16a-hexadecahydrocyclopropa[e]pyrrolo[1,2-a][1,4]diazacyclopentadecin-6-yl)carbamate] | < 5.46 nM | < 5.46 nM
2 | COc1ccc2c(O[C@@H]3C[C@H]4C(=O)N[C@]5(C(=O)NS(=O)(=O)C6CC6)C[C@H]5/C=C\CC[C@H](C)C[C@@H](C)[C@H](NC(=O)OC(C)(C)C)C(=O)N4C3)nc(-c3ccc(N4CCOCC4)cc3)cc2c1 [Compound 5192, tert-butyl ((2R,6S,7R,9S,13aS,14aR,16aS,Z)-14a-((cyclopropylsulfonyl)carbamoyl)-2-((6-methoxy-3-(4-morpholinophenyl)isoquinolin-1-yl)oxy)-7,9-dimethyl-5,16-dioxo-1,2,3,5,6,7,8,9,10,11,13a,14,14a,15,16,16a-hexadecahydrocyclopropa[e]pyrrolo[1,2-a][1,4]diazacyclopentadecin-6-yl)carbamate] | < 5.46 nM | < 5.46 nM
3 | COc1ccc2c(O[C@@H]3C[C@H]4C(=O)N[C@]5(C(=O)NS(=O)(=O)C6CC6)C[C@H]5/C=C\CC[C@@H](C)C[C@@H](C)[C@H](NC(=O)OC(C)(C)C)C(=O)N4C3)nc(-c3ccc(N4CCOCC4)cc3)cc2c1 [Compound 5193, tert-butyl ((2R,6S,7R,9R,13aS,14aR,16aS,Z)-14a-((cyclopropylsulfonyl)carbamoyl)-2-((6-methoxy-3-(4-morpholinophenyl)isoquinolin-1-yl)oxy)-7,9-dimethyl-5,16-dioxo-1,2,3,5,6,7,8,9,10,11,13a,14,14a,15,16,16a-hexadecahydrocyclopropa[e]pyrrolo[1,2-a][1,4]diazacyclopentadecin-6-yl)carbamate] | < 5.46 nM | < 5.46 nM
4 | COc1ccc2c(O[C@@H]3C[C@H]4C(=O)N[C@]5(C(=O)NS(=O)(=O)C6CC6)C[C@H]5/C=C\CC[C@H](C)C[C@@H](C)[C@H](NC(=O)OC5C[C@@H]6C[C@@H]6C5)C(=O)N4C3)nc(-c3ccc(N4CCOCC4)cc3)cc2c1 (stereo partly drawn) [Compound 5194, (1R,3r,5S)-bicyclo[3.1.0]hexan-3-yl((2R,6S,7R,9S,13aS,14aR,16aS,Z)-14a-((cyclopropylsulfonyl)carbamoyl)-2-((6-methoxy-3-(4-morpholinophenyl)isoquinolin-1-yl)oxy)-7,9-dimethyl-5,16-dioxo-1,2,3,5,6,7,8,9,10,11,13a,14,14a,15,16,16a-hexadecahydrocyclopropa[e]pyrrolo[1,2-a][1,4]diazacyclopentadecin-6-yl)carbamate] | < 5.46 nM | < 5.46 nM
5 | COc1ccc2c(O[C@@H]3C[C@H]4C(=O)N[C@]5(C(=O)NS(=O)(=O)C6CC6)C[C@H]5/C=C\CC[C@@H](C)C[C@@H](C)[C@H](NC(=O)OC5C[C@@H]6C[C@@H]6C5)C(=O)N4C3)nc(-c3ccc(N4CCOCC4)cc3)cc2c1 (stereo partly drawn) [Compound 5195, (1R,3r,5S)-bicyclo[3.1.0]hexan-3-yl((2R,6S,7R,9R,13aS,14aR,16aS,Z)-14a-((cyclopropylsulfonyl)carbamoyl)-2-((6-methoxy-3-(4-morpholinophenyl)isoquinolin-1-yl)oxy)-7,9-dimethyl-5,16-dioxo-1,2,3,5,6,7,8,9,10,11,13a,14,14a,15,16,16a-hexadecahydrocyclopropa[e]pyrrolo[1,2-a][1,4]diazacyclopentadecin-6-yl)carbamate] | < 5.46 nM | < 5.46 nM

— US9499550B2 (BRISTOL-MYERS SQUIBB COMPANY, priority 2012, dated 2016)
